# Reference: PubChem BioAssay AID2060617 (Molecular Pharmacology Branch, DTP, NCI, 2025)
# System: 485368-065-R4-J2-PDC spheroids with HUVEC/MSC, viability
# Test: Anticancer human tumor 485368-065-R4-J2-PDC patient-derived pancreatic carcinoma cell line growth inhibition [CLK]
# Details: for IC50: curve of first compound; for viability, T/C: stronger effect = lower value
# Outline: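 Patient-derived tumor cells grown as complex spheroids with HUVEC endothelial cells and mesenchymal stem cells, treated with drug combinations. Concentrations descend in half-log steps from near clinical Cmax, or from 10 microM if Cmax unknown.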
# [1] = second compound 0.0316 µM, first compound 0.0316 µM
# [2] = second compound 0.0316 µM, first compound 0.1 µM
# [3] = second compound 0.1 µM, first compound 0.0316 µM
# [4] = second compound 0.1 µM, first compound 0.1 µM
# [5] = second compound 0.316 µM, first compound 0.0316 µM
# [6] = second compound 0.316 µM, first compound 0.1 µM
# [7] = second compound 1 µM, first compound 0.0316 µM
# [8] = second compound 1 µM, first compound 0.1 µM
# [9] = second compound 3.16 µM, first compound 0.0316 µM
# [10] = second compound 3.16 µM, first compound 0.1 µM
# [11] = second compound 10 µM, first compound 0.0316 µM
# [12] = second compound 10 µM, first compound 0.1 µM
# [13] = second compound 0.0316 µM, first compound 0.316 µM
# [14] = second compound 0.0316 µM, first compound 1 µM
# [15] = second compound 0.0316 µM, first compound 3.16 µM
# [16] = second compound 0.0316 µM, first compound 10 µM
# [17] = second compound 0.1 µM, first compound 0.316 µM
# [18] = second compound 0.1 µM, first compound 1 µM
# [19] = second compound 0.1 µM, first compound 3.16 µM
# [20] = second compound 0.1 µM, first compound 10 µM
# [21] = second compound 0.316 µM, first compound 0.316 µM
# [22] = second compound 0.316 µM, first compound 1 µM
# [23] = second compound 0.316 µM, first compound 3.16 µM
# [24] = second compound 0.316 µM, first compound 10 µM
# [25] = second compound 1 µM, first compound 0.316 µM
# [26] = second compound 1 µM, first compound 1 µM
# [27] = second compound 1 µM, first compound 3.16 µM
# [28] = second compound 1 µM, first compound 10 µM
# [29] = second compound 3.16 µM, first compound 0.316 µM
# [30] = second compound 3.16 µM, first compound 1 µM
# [31] = second compound 3.16 µM, first compound 3.16 µM
# [32] = second compound 3.16 µM, first compound 10 µM
# [33] = second compound 10 µM, first compound 0.316 µM
# [34] = second compound 10 µM, first compound 1 µM
# [35] = second compound 10 µM, first compound 3.16 µM
# [36] = second compound 10 µM, first compound 10 µM
# 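Also: spheroids exposed to compounds for seven days.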
# 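For viability, T/C in this document: 100% = DMSO vehicle control wells.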
smiles,measurement,setting,value
Cn1ncnc1[C@H]1c2n[nH]c(=O)c3cc(F)cc(c23)N[C@@H]1c1ccc(F)cc1 + CNC(=O)c1ccc(Nc2nc(OC3CCCC3)c3c(-c4ccc5nc(C)oc5c4)c[nH]c3n2)c(OC)c1,IC50,second compound 0.0316 µM,> 100 nM
same,IC50,second compound 0.1 µM,> 100 nM
same,IC50,second compound 0.316 µM,> 100 nM
same,IC50,second compound 1 µM,> 100 nM
same,IC50,second compound 3.16 µM,> 100 nM
same,IC50,second compound 10 µM,> 100 nM
same,"viability, T/C","second compound 0.0316 µM, first compound 0.000316 µM",91.9%
same,"viability, T/C","second compound 0.0316 µM, first compound 0.001 µM",94.1%
same,"viability, T/C","second compound 0.0316 µM, first compound 0.00316 µM",97.4%
same,"viability, T/C","second compound 0.0316 µM, first compound 0.01 µM",105%
same,"viability, T/C",[1],98%
same,"viability, T/C",[2],90.8%
same,"viability, T/C","second compound 0.1 µM, first compound 0.000316 µM",89.3%
same,"viability, T/C","second compound 0.1 µM, first compound 0.001 µM",97.8%
same,"viability, T/C","second compound 0.1 µM, first compound 0.00316 µM",99%
same,"viability, T/C","second compound 0.1 µM, first compound 0.01 µM",105%
same,"viability, T/C",[3],89.7%
same,"viability, T/C",[4],82.4%
same,"viability, T/C","second compound 0.316 µM, first compound 0.000316 µM",79.6%
same,"viability, T/C","second compound 0.316 µM, first compound 0.001 µM",79.5%
same,"viability, T/C","second compound 0.316 µM, first compound 0.00316 µM",81.2%
same,"viability, T/C","second compound 0.316 µM, first compound 0.01 µM",77.9%
same,"viability, T/C",[5],89%
same,"viability, T/C",[6],73%
same,"viability, T/C","second compound 1 µM, first compound 0.000316 µM",74.7%
same,"viability, T/C","second compound 1 µM, first compound 0.001 µM",75.8%
same,"viability, T/C","second compound 1 µM, first compound 0.00316 µM",79%
same,"viability, T/C","second compound 1 µM, first compound 0.01 µM",66.6%
same,"viability, T/C",[7],77%
same,"viability, T/C",[8],63.3%
same,"viability, T/C","second compound 3.16 µM, first compound 0.000316 µM",78.4%
same,"viability, T/C","second compound 3.16 µM, first compound 0.001 µM",74.3%
same,"viability, T/C","second compound 3.16 µM, first compound 0.00316 µM",69.8%
same,"viability, T/C","second compound 3.16 µM, first compound 0.01 µM",67.4%
same,"viability, T/C",[9],59.1%
same,"viability, T/C",[10],66%
same,"viability, T/C","second compound 10 µM, first compound 0.000316 µM",70%
same,"viability, T/C","second compound 10 µM, first compound 0.001 µM",69.7%
same,"viability, T/C","second compound 10 µM, first compound 0.00316 µM",60.8%
same,"viability, T/C","second compound 10 µM, first compound 0.01 µM",62.9%
same,"viability, T/C",[11],64.2%
same,"viability, T/C",[12],57.9%
C#Cc1c(F)ccc2cc(O)cc(-c3ncc4c(N5CC6CCC(C5)N6)nc(OCC56CCCN5CC(F)C6)nc4c3F)c12 (stereo not drawn) + CN1CCN(c2cc(C(=O)Nc3cc4cc(-c5cnn(C)c5)ccc4cn3)ccn2)CC1,IC50,second compound 0.0316 µM,> 10000 nM
same,IC50,second compound 0.1 µM,> 10000 nM
same,IC50,second compound 0.316 µM,9710 nM
same,IC50,second compound 1 µM,< 31.6 nM
same,IC50,second compound 3.16 µM,< 31.6 nM
same,IC50,second compound 10 µM,< 31.6 nM
same,"viability, T/C",[1],94.6%
same,"viability, T/C",[2],106%
same,"viability, T/C",[13],96.7%
same,"viability, T/C",[14],116%
same,"viability, T/C",[15],107%
same,"viability, T/C",[16],117%
same,"viability, T/C",[3],112%
same,"viability, T/C",[4],115%
same,"viability, T/C",[17],96.3%
same,"viability, T/C",[18],111%
same,"viability, T/C",[19],96%
same,"viability, T/C",[20],75.8%
same,"viability, T/C",[5],90.3%
same,"viability, T/C",[6],90.9%
same,"viability, T/C",[21],82.5%
same,"viability, T/C",[22],80.7%
same,"viability, T/C",[23],68.6%
same,"viability, T/C",[24],49.3%
same,"viability, T/C",[7],3.21%
same,"viability, T/C",[8],2.21%
same,"viability, T/C",[25],1.7%
same,"viability, T/C",[26],2.24%
same,"viability, T/C",[27],1.78%
same,"viability, T/C",[28],1.33%
same,"viability, T/C",[9],1.18%
same,"viability, T/C",[10],1.09%
same,"viability, T/C",[29],1.08%
same,"viability, T/C",[30],1.21%
same,"viability, T/C",[31],1.29%
same,"viability, T/C",[32],1.21%
same,"viability, T/C",[11],1.44%
same,"viability, T/C",[12],2.45%
same,"viability, T/C",[33],1.6%
same,"viability, T/C",[34],1.34%
same,"viability, T/C",[35],2.21%
same,"viability, T/C",[36],1.87%
Nc1ccn(C2OC(CO)C(O)C2(F)F)c(=O)n1 (stereo not drawn) + CN1CCN(c2cc(C(=O)Nc3cc4cc(-c5cnn(C)c5)ccc4cn3)ccn2)CC1,IC50,second compound 0.0316 µM,< 31.6 nM
same,IC50,second compound 0.1 µM,< 31.6 nM
same,IC50,second compound 0.316 µM,< 31.6 nM
same,IC50,second compound 1 µM,< 31.6 nM
same,IC50,second compound 3.16 µM,< 31.6 nM
same,IC50,second compound 10 µM,< 31.6 nM
same,"viability, T/C",[1],48.5%
same,"viability, T/C",[2],32.7%
same,"viability, T/C",[13],24.1%
same,"viability, T/C",[14],24.2%
same,"viability, T/C",[15],25.3%
same,"viability, T/C",[16],21.6%
same,"viability, T/C",[3],39.2%
same,"viability, T/C",[4],21.1%
same,"viability, T/C",[17],19.5%
same,"viability, T/C",[18],16.6%
same,"viability, T/C",[19],16.6%
same,"viability, T/C",[20],13.8%
same,"viability, T/C",[5],28.5%
same,"viability, T/C",[6],16.6%
same,"viability, T/C",[21],14.1%
same,"viability, T/C",[22],14.9%
same,"viability, T/C",[23],14.1%
same,"viability, T/C",[24],12.8%
same,"viability, T/C",[7],0.77%
same,"viability, T/C",[8],2.15%
same,"viability, T/C",[25],3.11%
same,"viability, T/C",[26],1.96%
same,"viability, T/C",[27],2.6%
same,"viability, T/C",[28],3.01%
same,"viability, T/C",[9],1.85%
same,"viability, T/C",[10],1.43%
same,"viability, T/C",[29],2.71%
same,"viability, T/C",[30],4.76%
same,"viability, T/C",[31],2.68%
same,"viability, T/C",[32],5.26%
same,"viability, T/C",[11],1.32%
same,"viability, T/C",[12],2.34%
same,"viability, T/C",[33],1.93%
same,"viability, T/C",[34],2.61%
same,"viability, T/C",[35],2.98%
same,"viability, T/C",[36],2.55%
CC(=O)O[C@H]1C(=O)[C@@]2(C)[C@H]([C@H](OC(=O)c3ccccc3)[C@]3(O)C[C@H](OC(=O)[C@H](O)[C@@H](NC(=O)c4ccccc4)c4ccccc4)C(C)=C1C3(C)C)[C@]1(OC(C)=O)CO[C@@H]1C[C@@H]2O + CNC(=O)c1ccc(Nc2nc(OC3CCCC3)c3c(-c4ccc5nc(C)oc5c4)c[nH]c3n2)c(OC)c1,IC50,second compound 0.0316 µM,> 10000 nM
same,IC50,second compound 0.1 µM,> 10000 nM
same,IC50,second compound 0.316 µM,> 10000 nM
same,IC50,second compound 1 µM,> 10000 nM
same,IC50,second compound 3.16 µM,> 10000 nM
same,IC50,second compound 10 µM,> 10000 nM
same,"viability, T/C",[1],63.4%
same,"viability, T/C",[2],49.2%
same,"viability, T/C",[13],55.9%
same,"viability, T/C",[14],62.6%
same,"viability, T/C",[15],56.5%
same,"viability, T/C",[16],55.8%
same,"viability, T/C",[3],59.1%
same,"viability, T/C",[4],66.3%
same,"viability, T/C",[17],60.4%
same,"viability, T/C",[18],56.7%
same,"viability, T/C",[19],55.2%
same,"viability, T/C",[20],76.5%
same,"viability, T/C",[5],76.3%
same,"viability, T/C",[6],79.7%
same,"viability, T/C",[21],85.2%
same,"viability, T/C",[22],85.6%
same,"viability, T/C",[23],86.6%
same,"viability, T/C",[24],102%
same,"viability, T/C",[7],73.8%
same,"viability, T/C",[8],82.2%
same,"viability, T/C",[25],81.6%
same,"viability, T/C",[26],83.5%
same,"viability, T/C",[27],90.5%
same,"viability, T/C",[28],91.9%
same,"viability, T/C",[9],74.4%
same,"viability, T/C",[10],80.1%
same,"viability, T/C",[29],86.4%
same,"viability, T/C",[30],78.6%
same,"viability, T/C",[31],88%
same,"viability, T/C",[32],88.9%
same,"viability, T/C",[11],67.5%
same,"viability, T/C",[12],78.8%
same,"viability, T/C",[33],73.9%
same,"viability, T/C",[34],77.5%
same,"viability, T/C",[35],82.4%
same,"viability, T/C",[36],95.4%
